The values that follow come from patent US4203986A, “M-Trifluoro-methylphenyl-piperazine” (Metabio-Joullie, priority 1977, dated 1980).

Where two headings read alike, the source gives them in different places.

A short description of series [1]: Test on the cataleptic action in rats. The series is classed as in vivo. The following applies: p.o., every 30 minutes for 6 hours. As for the experimental part:
(7) Test on the cataleptic action in rats (groups of 5 animals)
After administration p.o. of the test compounds, the degree of catalepsy is noted every 30 minutes for 6 hours by the test of crossing of the homolateral feet according to BOISSIER (J.R.) and SIMON (P.) (Therapy, 1963, 18, 1257-1277) and using the following notation:
0=animal which is not cataleptic
132 animal conserving position on one side only
2=animal conserving position on both sides

For series [2], the system named is coughing induced by aqueous citric acid aerosol. In words: Antitussive action in the guinea pig (citric acid aerosol). The class given is in vivo. An excerpt: The technique used is that of SIECKMANN (W.) (in "Notions techniques de Pharmacologie generale" by Michel COLOT, page 75, Masson, Edit, 1972).
The guinea pigs .female. of mean weight 400 g, unanaesthesised, are subjected to the tussigenic effect of aerosols of a 7.5% aqueous citric acid solution. The animals are placed one by one in a cylindrical chamber having at its two extremities two canals, one serving as entrance for the aerosol and the other as its exit.
On the exit tube there is a lateral connection to a MERCURY gas pressure differential gauge joined to an RACIA counter. An adjustable screw clamp placed on the exit tube downstream of the lateral canal permits regulation of the sensitivity of the system such that the normal respiration of the animal only registers very weakly and that displacement of air in the chamber provoked by coughing attack is recorded clearly in the form of vertical traces.
Each guinea pig is first submitted to a control test for 5 minutes. One hour later it receives the test compound. It is replaced in the chamber for 5 minutes, 1 hour after oral administration of the compound.
The number of coughing attacks before and after administration is counted and the percentage inhibition is calculated.

A short description of a further series: Acute toxicity in Mice. The series is classed as in vivo, mice (SWISS, EOPS, NMRI/Han, female). To be noted: for LD50 at 360 h / MTD at 360 h: mouse, in vivo; for LD50 at 360 h: method of KARBER and BEHRENS; for MTD at 360 h: read-out: LD 0 (maximum dose tolerated). The method, then:
The compounds are administered in increasing doses (in arithmetic progression) to groups of five .female. SWISS, EOPS, NMRI/Han mice of the EVIC CEBA strain and having a mean weight of 22 g.
For intravenous administration the compounds are dissolved in distilled water, for oral administration they are suspended in 10% gum arabic solution (volume administered: 0.5 ml/22 g body weight).
The LD 50's are calculated according to the method of KARBER and BEHRENS (B.) (Arch. Exp. Path. Pharmakol. 1935, 177, 379-388).
For each administration method, there is indicated:
LD 0 or maximum dose tolerated.
LD 100 or minimum lethal dose.
The number of animals surviving in the different groups is definitively verified 15 days after administrating the compounds.

In series [3] the test system is toxicity of amphetamine compounds. Briefly: Action on the toxicity of Amphetamine compounds in the mice. The series is classed as in vivo. The following applies: per os. As for the experimental part: (6) Action on the toxicity of Amphetamine compounds in the mice. (groups of 10 animals)
30 minutes after administration of the test compounds, amphetamine bitartrate is injected interperitioeally at a dose of 10 mg/kg (dose giving substantially 100% mortality) to mice in groups of 10 in boxes 12×18×13 cm. The number of animals surviving 24 hours after the amphetamine administration is noted.

In series [4] the test system is coughing by stimulation of the superior larynx nerve. In words: Antitussive action in the cat (stimulation of the superior larynx nerve). The class given is in vivo. To be noted: 12 mg/kg i.v. As for the experimental part: The cats all thriving, male or female of weight between 1.5 and 2.5 kg (test on 10 cats) are anaesthesised by nembutal at a dose of 30 mg/kg interperitoneally.
A cannula having three branches is placed in the trachea. Two of the branches are connected to a device for registering intratracheal pressure (MERCURY gas pressure gauge connected to an RACIA polygraph) The third branch allows elimination of part of the respiratory volume.
A cannula is placed in the femoral vein for administration of the test substances.
The stimulation parameters are as follows: frequency: 5 cycles per sec, amplitude: 5 millisec, voltage: 4 to 6 volts, duration: 15 to 45 sec. (according to the sensitivity of the animal).
There are carried a minimum of 3 stimulations spaced by 5 minutes and provoking coughing attacks of the same severity. The compound is then administered intravenously. The stimulation is then carried out every 5 minutes. If the compound reduces or suppresses the coughing the stimulation is continued until the reappearance of coughing to approximately the same degree as the initial coughing.
The results are expressed as a percentage reduction in the number of coughs.

Consider `O=C1CCCC1CN1CCN(c2cccc(C(F)(F)F)c2)CC1` (centres unmarked) [LJ 1160], for which the cataleptic effect result in series [1] is “absence of cataleptic effect”. In series [2] (Cavia porcellus, po, 1 h, 100 mg/kg p.o., read-out: Percentages of inhibition of coughing), the inhibition in vivo at 100 mg/kg came out at 50%. Besides, the “LD 100 (minimum lethal dose)” value in the series “Acute toxicity in Mice” (intravenous administration) came out at 87.5 mg/kg; in “Acute toxicity in Mice” (oral administration), 1500 mg/kg. In addition, the LD50 at 360 h turned out to be 74 mg/kg in “Acute toxicity in Mice” (iv, intravenous administration) and 975 mg/kg in “Acute toxicity in Mice” (po, oral administration). Further, the MTD at 360 h in the series “Acute toxicity in Mice” (iv, intravenous administration) is 62.5 mg/kg; in “Acute toxicity in Mice” (po, oral administration), 500 mg/kg. In series [3], the “toxicity of amphetamine compounds (in words)” value was “reduce the toxicity of amphetamine compounds”.

On to `O=C1CCCCC1CN1CCN(c2cccc(C(F)(F)F)c2)CC1` (centres unmarked) [LJ 1144], for which the cataleptic effect entry in series [1] is “absence of cataleptic effect”. In addition, the inhibition in vivo at 182 mg/kg in series [2] (Cavia porcellus, po, 1 h, 182 mg/kg p.o., read-out: Percentages of inhibition of coughing) turned out to be 75%. Besides, the “antitussive activity (in words)” value in series [2] (oral) is “also active if not more active than codeine”. Further, in series [4], the “% maximum reduction in the number of coughs” value came to 85%. The “LD 100 (minimum lethal dose)” value is reported as 75 mg/kg in “Acute toxicity in Mice” (intravenous administration) and 2250 mg/kg in “Acute toxicity in Mice” (oral administration). Moreover, the LD50 at 360 h was 61 mg/kg in “Acute toxicity in Mice” (iv, intravenous administration) and 1820 mg/kg in “Acute toxicity in Mice” (po, oral administration). The MTD at 360 h in “Acute toxicity in Mice” (iv, intravenous administration) was determined as 37.5 mg/kg; in the series “Acute toxicity in Mice” (po, oral administration) it was 1250 mg/kg. The “toxicity of amphetamine compounds (in words)” value in series [3] was “reduce the toxicity of amphetamine compounds”.
